The target of data set [1] is Protein kinase C delta type (Homo sapiens, UniProt Q05655). As to the kind of experiment: Inhibition of Protein kinase C delta.
Data set [2] deals with Protein kinase C eta type (Homo sapiens, UniProt P24723). As to the kind of experiment: Inhibition of Protein kinase C eta.
In data set [3] the target is T1, Protein kinase C beta type (Homo sapiens, UniProt P05771). As to the kind of experiment: Inhibition of Protein kinase C beta 1.
In data set [4] the target is T2, Protein kinase C epsilon type (Homo sapiens, UniProt Q02156).
T2 sequence (Q02156 whole entry): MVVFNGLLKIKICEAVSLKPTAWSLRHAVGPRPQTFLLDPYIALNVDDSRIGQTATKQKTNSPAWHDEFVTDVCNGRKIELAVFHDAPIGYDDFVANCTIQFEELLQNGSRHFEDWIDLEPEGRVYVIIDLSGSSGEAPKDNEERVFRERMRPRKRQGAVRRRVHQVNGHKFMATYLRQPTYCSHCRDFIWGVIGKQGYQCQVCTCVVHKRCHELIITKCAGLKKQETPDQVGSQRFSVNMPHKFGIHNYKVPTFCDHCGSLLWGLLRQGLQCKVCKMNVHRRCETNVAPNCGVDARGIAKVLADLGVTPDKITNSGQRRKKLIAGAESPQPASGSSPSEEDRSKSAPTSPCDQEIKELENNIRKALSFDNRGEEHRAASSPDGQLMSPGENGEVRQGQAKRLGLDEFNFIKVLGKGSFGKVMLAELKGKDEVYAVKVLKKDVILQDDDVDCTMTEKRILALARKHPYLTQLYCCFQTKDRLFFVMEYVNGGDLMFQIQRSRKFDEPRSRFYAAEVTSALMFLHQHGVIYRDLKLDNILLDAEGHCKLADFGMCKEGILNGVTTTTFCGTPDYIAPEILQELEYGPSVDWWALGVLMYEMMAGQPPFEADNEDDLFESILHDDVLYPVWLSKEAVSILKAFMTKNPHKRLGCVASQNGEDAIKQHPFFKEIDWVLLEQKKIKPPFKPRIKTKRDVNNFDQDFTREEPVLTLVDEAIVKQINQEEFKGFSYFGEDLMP
As to the kind of experiment: Inhibition of Protein kinase C epsilon.

Data set [5] has as its target T1, Protein kinase C beta type. As to the kind of experiment: Inhibition of Protein kinase C beta 2.
The target of data set [6] is T3, Protein kinase C zeta type (Homo sapiens, UniProt Q05513).
T3 sequence (Q05513 whole entry): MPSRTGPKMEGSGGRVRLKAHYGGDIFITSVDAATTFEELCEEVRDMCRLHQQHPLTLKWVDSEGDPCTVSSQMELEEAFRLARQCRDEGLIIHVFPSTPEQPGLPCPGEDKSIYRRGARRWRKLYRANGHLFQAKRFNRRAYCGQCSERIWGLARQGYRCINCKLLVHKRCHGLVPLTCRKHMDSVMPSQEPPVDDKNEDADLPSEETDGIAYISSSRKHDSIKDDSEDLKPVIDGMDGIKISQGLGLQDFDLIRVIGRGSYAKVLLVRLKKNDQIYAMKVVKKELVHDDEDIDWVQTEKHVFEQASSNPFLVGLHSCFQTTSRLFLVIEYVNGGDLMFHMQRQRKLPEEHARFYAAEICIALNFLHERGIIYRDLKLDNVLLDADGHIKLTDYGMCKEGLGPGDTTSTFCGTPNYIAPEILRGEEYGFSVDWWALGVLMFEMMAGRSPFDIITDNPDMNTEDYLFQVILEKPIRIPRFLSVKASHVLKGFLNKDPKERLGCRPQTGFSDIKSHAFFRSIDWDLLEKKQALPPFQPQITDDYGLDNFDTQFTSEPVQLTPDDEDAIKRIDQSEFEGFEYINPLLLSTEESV
As to the kind of experiment: Inhibition of Protein kinase C zeta.

Data set [7] deals with Protein kinase C alpha type (Homo sapiens, UniProt P17252). As to the kind of experiment: Inhibition of Protein kinase C alpha.
Data set [8] deals with Protein kinase C gamma type (Homo sapiens, UniProt P05129). As to the kind of experiment: Inhibition of Protein kinase C gamma.
The nature of data set [9]: Stability in human plasma 2 hr after incubation expressed as percent concentration. The following applies: read-out: Concentration. Type of data set: ADME, cell-free.
Data set [10] can be described thus: Stability in human plasma 4 hr after incubation expressed as percent concentration. Type of data set: ADME, cell-free. To be noted: read-out: Concentration.

T1 sequence (P05771 whole entry): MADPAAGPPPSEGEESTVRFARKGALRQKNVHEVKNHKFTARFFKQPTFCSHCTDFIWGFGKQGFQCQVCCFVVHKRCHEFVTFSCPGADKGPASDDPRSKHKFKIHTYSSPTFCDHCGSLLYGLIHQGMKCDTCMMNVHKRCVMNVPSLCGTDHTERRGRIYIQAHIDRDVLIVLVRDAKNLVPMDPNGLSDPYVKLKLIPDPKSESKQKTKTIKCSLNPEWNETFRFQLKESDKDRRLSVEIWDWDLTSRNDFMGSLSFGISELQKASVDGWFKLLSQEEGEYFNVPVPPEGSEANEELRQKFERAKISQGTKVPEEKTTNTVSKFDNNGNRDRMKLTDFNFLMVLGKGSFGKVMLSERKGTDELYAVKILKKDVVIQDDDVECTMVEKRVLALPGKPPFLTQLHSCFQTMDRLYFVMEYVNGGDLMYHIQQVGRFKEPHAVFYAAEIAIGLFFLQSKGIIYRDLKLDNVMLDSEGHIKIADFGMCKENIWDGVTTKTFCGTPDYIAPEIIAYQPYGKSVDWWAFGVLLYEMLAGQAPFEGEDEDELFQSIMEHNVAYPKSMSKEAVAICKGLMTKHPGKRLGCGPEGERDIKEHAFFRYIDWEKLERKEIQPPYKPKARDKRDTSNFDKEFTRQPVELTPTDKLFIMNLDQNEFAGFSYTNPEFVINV
Protein kinase C delta type, sequence (Q05655 whole entry): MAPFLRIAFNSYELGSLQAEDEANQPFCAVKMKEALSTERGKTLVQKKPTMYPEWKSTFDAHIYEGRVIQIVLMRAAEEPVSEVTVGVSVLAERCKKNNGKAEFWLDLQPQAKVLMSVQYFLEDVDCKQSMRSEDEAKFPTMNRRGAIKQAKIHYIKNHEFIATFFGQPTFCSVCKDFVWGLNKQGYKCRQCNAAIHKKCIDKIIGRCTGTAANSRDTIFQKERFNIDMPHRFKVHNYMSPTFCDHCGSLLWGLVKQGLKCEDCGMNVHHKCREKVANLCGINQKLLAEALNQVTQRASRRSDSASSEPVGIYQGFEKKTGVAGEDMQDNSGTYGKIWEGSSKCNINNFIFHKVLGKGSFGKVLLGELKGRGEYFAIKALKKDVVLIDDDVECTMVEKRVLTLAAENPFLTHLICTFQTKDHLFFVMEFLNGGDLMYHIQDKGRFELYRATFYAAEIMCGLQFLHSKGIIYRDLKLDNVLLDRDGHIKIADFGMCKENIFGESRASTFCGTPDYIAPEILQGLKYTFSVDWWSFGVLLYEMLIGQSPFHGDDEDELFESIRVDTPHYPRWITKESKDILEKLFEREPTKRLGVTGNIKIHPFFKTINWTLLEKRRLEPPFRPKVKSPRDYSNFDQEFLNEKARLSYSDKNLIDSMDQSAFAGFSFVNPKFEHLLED
Protein kinase C eta type, sequence (P24723 whole entry): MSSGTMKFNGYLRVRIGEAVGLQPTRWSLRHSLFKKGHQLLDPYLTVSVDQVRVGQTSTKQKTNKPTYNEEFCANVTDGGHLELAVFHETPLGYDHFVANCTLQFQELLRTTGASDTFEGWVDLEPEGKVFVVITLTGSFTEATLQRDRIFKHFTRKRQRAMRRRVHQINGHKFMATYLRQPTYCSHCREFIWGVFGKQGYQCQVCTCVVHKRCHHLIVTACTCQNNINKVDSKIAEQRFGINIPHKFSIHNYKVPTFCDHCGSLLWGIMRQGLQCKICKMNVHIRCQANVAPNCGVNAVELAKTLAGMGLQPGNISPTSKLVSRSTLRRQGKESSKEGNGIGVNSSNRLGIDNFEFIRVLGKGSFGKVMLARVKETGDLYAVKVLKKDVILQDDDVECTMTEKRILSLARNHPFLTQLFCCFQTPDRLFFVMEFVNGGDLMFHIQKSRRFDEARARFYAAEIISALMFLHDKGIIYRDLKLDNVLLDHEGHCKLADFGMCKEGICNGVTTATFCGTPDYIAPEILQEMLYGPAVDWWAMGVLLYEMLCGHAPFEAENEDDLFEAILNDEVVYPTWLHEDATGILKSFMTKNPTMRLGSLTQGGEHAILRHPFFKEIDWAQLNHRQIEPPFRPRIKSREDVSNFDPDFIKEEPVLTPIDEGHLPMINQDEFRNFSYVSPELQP

As to `CN(C(=O)c1cc(O)c(C(=O)c2c(O)cccc2C(=O)O)c(O)c1)[C@H]1CCCNC[C@H]1NC(=O)c1ccc(O)cc1`, the IC50 is 42000 nM in [1]; 31000 nM in data set [2]; above 50000 nM in data set [3]; above 50000 nM in [4]; above 50000 nM in data set [5]; above 50000 nM in [6]. The IC50 in data set [7] and in data set [8] was above 50000 nM each time.
As to `O=C(NC[C@@H]1CCC[C@H]1NC(=O)c1ccc(O)cc1)c1cc(O)c(C(=O)c2c(O)cccc2C(=O)O)c(O)c1`, the IC50 in data set [1] was 330 nM; in data set [2] it was 2300 nM; in [3], 17000 nM; in [4] it was above 50000 nM; in [5] it was 4900 nM; in [6], above 50000 nM. For the same compound, the figures for the IC50 in data set [7] and in data set [8] were 35000 nM and 46000 nM, respectively.
With `O=C(N[C@@H]1CCC[C@H]1OCc1cc(O)c(C(=O)c2c(O)cccc2C(=O)O)c(O)c1)c1ccc(O)cc1`, the IC50 in [1] is 20 nM; in [2] it was 30 nM; in data set [3], 430 nM; in data set [4] it was 370 nM; in data set [5] it was 290 nM; in [6], above 50000 nM. Besides, the IC50 is 460 nM in [7] and 1100 nM in data set [8]. In addition, the remaining at 2 h in data set [9] was 100%. Also, the remaining at 4 h in data set [10] came to 100%.
In the case of `C[C@@]1(OC(=O)c2cc(O)c(C(=O)c3c(O)cccc3C(=O)O)c(O)c2)CCCNC[C@H]1NC(=O)c1ccc(O)cc1`, the IC50 in data set [1] worked out at 30 nM; in data set [2], 20 nM; in [3], 120 nM; in data set [4], 50 nM; in data set [5], 70 nM; in data set [7], 220 nM. Further, the IC50 in data set [8] is 40 nM.
Turning to `O=C(N[C@@H]1CCC[C@H]1OC(=O)c1cc(O)c(C(=O)c2c(O)cccc2C(=O)O)c(O)c1)c1ccc(O)cc1`, the IC50 in data set [1] and in data set [2] was 1 nM throughout.
Consider `O=C(N[C@@H]1CNC[C@H]1NC(=O)c1cc(O)c(C(=O)c2c(O)cccc2C(=O)O)c(O)c1)c1ccc(O)cc1`, for which the IC50 in data set [1] was determined as 12 nM; in [2], 3 nM; in data set [3] it was 220 nM; in [4] it was 80 nM; in data set [5] it was 330 nM; in data set [6] it was 9600 nM. The IC50 in [7] was determined as 920 nM; in data set [8], 330 nM. Besides, the remaining at 2 h in [9] is 95%. Moreover, the remaining at 4 h in [10] was found to be 104%.
Regarding `O=C(N[C@@H]1CCCNC[C@H]1NC(=O)c1ccc(O)cc1)c1cc(O)c(C(=O)c2c(O)cccc2C(=O)O)c(O)c1`, the IC50 in [1] is 220 nM; in [2], 50 nM; in data set [3] it was 630 nM; in data set [4], 670 nM; in data set [5], 1200 nM; in [6] it was above 50000 nM. Besides, the IC50 came out at 3200 nM in [7] and 420 nM in [8].
As to `O=C(N[C@@H]1CNC[C@H]1OC(=O)c1cc(O)c(C(=O)c2c(O)cccc2C(=O)O)c(O)c1)c1ccc(O)cc1`, the IC50 came out at 10 nM in [3], 6800 nM in [6] and 12 nM in [8]. Further, the remaining at 2 h in [9] came to 88%. The remaining at 4 h in [10] is 103%.
Regarding `O=C(N[C@@H]1CCC[C@H]1COC(=O)c1cc(O)c(C(=O)c2c(O)cccc2C(=O)O)c(O)c1)c1ccc(O)cc1`, the IC50 in [1] is 20 nM; in data set [2] it was 20 nM; in data set [3], 40 nM; in data set [4], 340 nM; in [5], 30 nM; in data set [6], above 50000 nM. Also, the IC50 in data set [7] was found to be 40 nM; in [8], 300 nM.
In the case of `O=C(N[C@@H]1CNCCC[C@H]1OC(=O)c1cc(O)c(C(=O)c2c(O)cccc2C(=O)O)c(O)c1)c1ccc(O)cc1` (racemic) [BALANOL], the IC50 is 23 nM in data set [1]; 20 nM in data set [2]; 30 nM in data set [3]; 30 nM in data set [5]; 67 nM in data set [7]; 30 nM in data set [8].
Regarding `O=C(N[C@@H]1CNCCC[C@H]1OC(=O)c1cc(O)c(C(=O)c2c(O)cccc2C(=O)O)c(O)c1)c1ccc(O)cc1` [BALANOL], the IC50 in [1] came to 16 nM; in data set [2] it was 3 nM; in data set [3], 10 nM; in data set [5], 10 nM; in data set [6], 5900 nM; in [7] it was 30 nM. Also, the IC50 in [8] was determined as 10 nM.

Broadly, the IC50 is the concentration that inhibits the measured activity by half. Read a low IC50 as higher potency.

Values taken from ChEMBL document CHEMBL1128809 (Bioorg Med Chem Lett, 1995).
